Source: PMC4013053, “Identification of Selective Small Molecule Inhibitors of the Nucleotide-Binding Oligomerization Domain 1 (NOD1) Signaling Pathway” (PLoS ONE, 2014)

How the values were obtained:
NOD1 [1] = target: T1, NOD1 (Mus musculus, UniProt Q8BHB0); experiment: FK156 acute peritonitis model in mice, serum KC and IP-10; format: in vivo; conditions: oral administration, intraperitoneal FK156, data not shown
T1 construct: following intraperitoneal injection of FK156 in a model of acute peritonitis; from tissue; host or cells: whole mouse (in vivo)
T1 sequence (Q8BHB0 1-953): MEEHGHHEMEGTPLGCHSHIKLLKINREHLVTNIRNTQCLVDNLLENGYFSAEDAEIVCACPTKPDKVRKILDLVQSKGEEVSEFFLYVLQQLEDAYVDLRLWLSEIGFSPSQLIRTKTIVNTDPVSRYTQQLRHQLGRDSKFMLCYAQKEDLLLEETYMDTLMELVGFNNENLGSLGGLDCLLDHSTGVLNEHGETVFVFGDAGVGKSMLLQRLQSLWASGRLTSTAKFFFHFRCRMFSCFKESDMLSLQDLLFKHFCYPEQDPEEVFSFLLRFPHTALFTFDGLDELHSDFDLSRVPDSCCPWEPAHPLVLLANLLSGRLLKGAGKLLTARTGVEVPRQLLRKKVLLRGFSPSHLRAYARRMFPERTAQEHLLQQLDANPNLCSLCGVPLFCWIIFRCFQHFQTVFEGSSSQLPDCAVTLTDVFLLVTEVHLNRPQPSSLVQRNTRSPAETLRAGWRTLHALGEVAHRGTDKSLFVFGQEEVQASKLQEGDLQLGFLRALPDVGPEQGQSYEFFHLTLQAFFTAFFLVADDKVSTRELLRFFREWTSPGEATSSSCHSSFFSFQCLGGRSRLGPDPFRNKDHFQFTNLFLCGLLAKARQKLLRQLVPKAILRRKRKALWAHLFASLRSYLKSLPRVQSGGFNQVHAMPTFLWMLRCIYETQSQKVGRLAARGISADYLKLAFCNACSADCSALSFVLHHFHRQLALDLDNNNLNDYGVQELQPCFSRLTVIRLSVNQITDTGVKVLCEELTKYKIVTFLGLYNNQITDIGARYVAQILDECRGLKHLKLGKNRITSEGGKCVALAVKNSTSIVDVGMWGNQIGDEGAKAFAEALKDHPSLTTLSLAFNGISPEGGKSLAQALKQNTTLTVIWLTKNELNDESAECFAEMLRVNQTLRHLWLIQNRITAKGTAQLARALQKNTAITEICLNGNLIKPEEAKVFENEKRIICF
Text: We speculate that the known differences in ligand recognition between human and mouse NOD1 mapped to residues within the leucine-rich repeat domains could underlie the observed differential activity of the compounds on human versus mouse NOD1 signaling.

NOD1 [2] = test system: NOD1; parameters: method as in PMID 22870324; conditions: human lung microvascular endothelial cells, 10 µg/mL iE-DAP; cited from earlier work
NOD2 = NOD2 (Homo sapiens, UniProt Q9HC29); experiment: MDP-stimulated IL-8 secretion in primary human monocytes; format: cell-based; parameters: Monocytes were purified from heparinized human whole blood; endogenous in cells; host or cells: primary human blood monocytes
Sequence of NOD2 (Q9HC29 whole entry): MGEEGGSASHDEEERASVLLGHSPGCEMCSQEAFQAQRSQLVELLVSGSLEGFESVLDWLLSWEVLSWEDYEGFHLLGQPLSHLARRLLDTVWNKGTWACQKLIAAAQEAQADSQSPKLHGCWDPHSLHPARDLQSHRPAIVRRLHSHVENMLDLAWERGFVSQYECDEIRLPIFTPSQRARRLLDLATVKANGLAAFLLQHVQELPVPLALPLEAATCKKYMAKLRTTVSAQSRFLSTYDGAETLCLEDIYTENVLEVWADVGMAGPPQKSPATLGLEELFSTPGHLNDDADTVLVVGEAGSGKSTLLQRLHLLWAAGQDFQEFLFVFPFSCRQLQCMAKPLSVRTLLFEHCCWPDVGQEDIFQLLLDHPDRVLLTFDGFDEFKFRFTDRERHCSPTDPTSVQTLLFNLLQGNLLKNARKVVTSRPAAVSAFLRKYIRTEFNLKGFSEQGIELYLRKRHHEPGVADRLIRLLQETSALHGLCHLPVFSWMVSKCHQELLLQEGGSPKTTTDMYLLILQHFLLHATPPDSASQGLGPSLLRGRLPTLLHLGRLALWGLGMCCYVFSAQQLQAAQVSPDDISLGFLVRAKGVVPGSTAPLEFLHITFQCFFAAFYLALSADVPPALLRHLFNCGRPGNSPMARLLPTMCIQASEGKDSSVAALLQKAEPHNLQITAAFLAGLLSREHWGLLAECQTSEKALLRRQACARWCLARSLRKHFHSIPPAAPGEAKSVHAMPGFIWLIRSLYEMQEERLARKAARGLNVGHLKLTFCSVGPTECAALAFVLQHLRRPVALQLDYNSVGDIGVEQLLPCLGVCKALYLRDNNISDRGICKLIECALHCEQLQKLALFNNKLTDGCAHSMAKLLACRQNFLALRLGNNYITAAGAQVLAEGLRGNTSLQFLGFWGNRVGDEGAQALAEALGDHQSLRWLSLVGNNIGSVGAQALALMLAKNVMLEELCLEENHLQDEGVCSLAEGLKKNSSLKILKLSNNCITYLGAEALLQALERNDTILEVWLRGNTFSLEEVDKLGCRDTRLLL
Method: Monocytes were purified from heparinized human whole blood by centrifugation on Ficoll (Histopaque 1077) followed by Percoll gradients. Monocyte purity was >95% by morphological assessment of Wright’s stained cytospins. Cells were seeded at 100,000 per well in 96-well plates in RPMI containing 10%HI-FBS, pre-incubated for 1 hour with compounds, and then stimulated with either 25 µg/mL Tri-DAP or 1 µg/mL MDP. The concentration of IL-8 in medium samples collected after 24-hour treatment was determined by HTRF whereas IL-1β, IL-6 and TNFα were measured using the MS6000 human pro-inflammatory-4 II tissue culture kit (Meso Scale Discovery).

EPHB2 = target: T2, EPHB2 (Homo sapiens, UniProt P29323); experiment: Kinase activity panel: EPHB2; format: biochemical; conditions: 1 µM compound, 10 µM ATP
T2 construct: purchased Reaction Biology Corp
T2 sequence (P29323 19-1055): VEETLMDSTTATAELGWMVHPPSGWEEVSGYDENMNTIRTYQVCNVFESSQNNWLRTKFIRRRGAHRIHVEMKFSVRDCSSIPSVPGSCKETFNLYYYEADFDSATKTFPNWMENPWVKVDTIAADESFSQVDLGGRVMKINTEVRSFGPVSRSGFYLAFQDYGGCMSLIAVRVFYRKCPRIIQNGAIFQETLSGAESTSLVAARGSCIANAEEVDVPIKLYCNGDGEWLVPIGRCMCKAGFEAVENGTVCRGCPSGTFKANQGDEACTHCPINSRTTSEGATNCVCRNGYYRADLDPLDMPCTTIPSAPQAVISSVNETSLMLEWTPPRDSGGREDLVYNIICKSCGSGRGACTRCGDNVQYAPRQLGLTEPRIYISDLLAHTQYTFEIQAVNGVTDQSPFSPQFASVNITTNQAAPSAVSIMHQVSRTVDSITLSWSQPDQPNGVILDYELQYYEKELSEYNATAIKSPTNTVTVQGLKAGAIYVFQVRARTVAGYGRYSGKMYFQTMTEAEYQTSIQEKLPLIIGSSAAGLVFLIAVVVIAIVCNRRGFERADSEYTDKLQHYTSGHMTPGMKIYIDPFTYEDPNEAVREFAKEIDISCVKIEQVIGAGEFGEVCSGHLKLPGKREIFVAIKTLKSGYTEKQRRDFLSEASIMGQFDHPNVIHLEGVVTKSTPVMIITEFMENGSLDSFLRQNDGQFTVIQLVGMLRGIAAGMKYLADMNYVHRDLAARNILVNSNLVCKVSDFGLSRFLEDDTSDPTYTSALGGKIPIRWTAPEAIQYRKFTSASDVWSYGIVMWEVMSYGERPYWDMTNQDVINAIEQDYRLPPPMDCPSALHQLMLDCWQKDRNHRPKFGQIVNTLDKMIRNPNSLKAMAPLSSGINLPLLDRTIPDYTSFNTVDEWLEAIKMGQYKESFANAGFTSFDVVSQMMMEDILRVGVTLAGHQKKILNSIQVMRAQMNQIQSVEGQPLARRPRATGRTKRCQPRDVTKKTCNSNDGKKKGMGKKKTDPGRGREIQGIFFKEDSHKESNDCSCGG
Method: The compounds were tested in duplicate at 1 µM with a 20-minute pre-incubation with enzyme followed by addition of 10 µM ATP.

| effect on MDP induced IL-8 secretion (NOD2) | decrease of EPHB2 activity (EPHB2) [%] | Structure (SMILES) | effect on serum KC and IP-10 (CXCL10) (NOD1 [1]) | effect on IL-8 secretion, iE-DAP stimulated (NOD1 [2]) |
| --- | --- | --- | --- | --- |
| did not inhibit | – | Cc1nc2ccccc2c(=O)n1-c1ccc(Cl)c(NS(=O)(=O)c2ccccc2F)c1 [Compound 22] | failed to reduce serum KC and IP-10 (CXCL10) | inhibited IL-8 secretion |
| – | 51 | Cn1c(=O)[nH]c(=O)c2c1nc(CCSc1ccccc1)n2Cc1ccccc1 [SB711] | – | – |
